Experimental findings from US8975249B2, “Heterocyclic compounds and uses thereof” (Celgene Avilomics Research, Inc., priority 2010, dated 2015) are described below.

The test system of test [1] is H1975 tumor. Put plainly: H1975 tumor in vivo study. As to conditions: female nu/nu mice, H1975 subcutaneous, intraperitoneal 25 mg/kg daily for 21 days, determined at 15 days. The protocol: H1975 Tumor In Vivo Study
Female nu/nu mice were implanted with 1×10^7 H1975 tumor cells in 50% Matrigel subcutaneously (0.2 ml injection volume) in the flank. Tumor measurements were recorded three times per week. Tumors were pair matched when they reached an average size of 100-150 mg. Group size was 10 mice. Test compound was administered intraperitoneal, 25 mg/kg daily for 21 days. % Tumor inhibition values were determined at 15 days, the time at which the control group reached a maximum tumor volume. Tumor volume was followed until tumors reached 1500 mm^3 or 60 days.

Test [2] deals with EGFR double mutation L858R/T790M (H1975 cells) (Homo sapiens (Human), UniProt P00533, L858R/T790M). Put plainly: Phospho-EGFR signaling immunoblot in H1975 cells. It counts as cell-based. The following applies: for EC50: H1975 cells, 1 hr treatment, phospho-EGFR (Y1068); for Ratio WT/mutant (H1975): signaling EC50 WT EGFR / H1975. The method, then: (§1) A431 human epidermoid carcinoma, H1975 human NSCLC and HCC827 human NSCLC adenocarcinoma cells were obtained from the American Type Culture Center (Manassas, Va.). A431 cells were grown in DMEM (Invitrogen, Carlsbad, Calif.) supplemented with 10% FBS (HyClone, South Logan, Utah) and 1% Penicillin-Streptomycin (P/S, Lonza, Walkersville, Md.).
(§2) All primary antibodies were obtained from Cell Signaling (Danvers, Mass.) and used at 1:1000. Secondary antibodies were used at 1:10,000. Goat anti-mouse IgG IRDye 800CW antibody was obtained from LiCor Biosciences (Lincoln, Nebr.) and goat anti-rabbit IgG Alexa Fluor 680 was obtained from Invitrogen.
(§3) Cells were grown in 12-well plates (Corning, Coring, N.Y.) to 90% confluence and then incubated in low-serum (0.1% FBS) media for 16-18 hr. […] A431 cells were then stimulated with 50 ng/ml EGF (Peprotech, Rocky Hill, N.J.) for 15 min. After treatment, cell monolayers were washed with cold PBS (Invitrogen) and immediately lysed by scrapping into 60 uL cold Cell Extraction Buffer (Invitrogen) supplemented with Complete Protease inhibitors (Roche, Indianapolis, Ind.) and PhosphoSTOP (Roche) phosphatase inhibitors.
(§4) Phospho-protein signals were quantitated using Odyssey Infrared Imaging (Li-Cor Biosciences).
(§5) To assess phosphor-EGFR signaling, blots were probed with rabbit anti-Phospho-EGFR (Y1068) and mouse total anti-EGFR antibodies. Phospho-EGFR signal was normalized to total EGFR expression for each sample. […] Normalized data was fitted using a sigmoidal curve analysis program (Graph Pad Prism version 5) with variable Hill slope to determine the EC50 values.
(§6) The compound numbers recited in Table 4 correspond to the compound numbers in Table 1.
(In general: In western blotting, separated proteins are transferred to a membrane and probed.)

In test [3] the target is WT EGFR (A431 cells) (Homo sapiens (Human), UniProt P00533). Put plainly: Phospho-EGFR signaling immunoblot in A431 cells (WT EGFR). It counts as cell-based. The following applies: 1 hr treatment, EGF stimulated, phospho-EGFR (Y1068). The method, then: as §1, §2, §3, §4, §5, §6
In test [4] the test system is H1975 cells (EGFR L858R/T790M). Put plainly: Cell proliferation (CellTiter Glo), H1975 cells. (In general: In ATP-based viability assays light output follows the ATP content of the culture.)
The target of test [5] is EGFR (WT) (Homo sapiens (Human), UniProt P00533). Put plainly: Omnia biochemical assay, EGFR-WT active enzyme. As to conditions: [EGFR-WT]=5 nM, [ATP]=15 uM, 30 min pre-incubation. The method, then:
Kinase reactions were started with the addition of 45 μL of the ATP/Tyr-Sox peptide substrate mix and monitored every 71 seconds for 60 minutes at λex360/λem485 in a Synergy^4 plate reader from BioTek (Winooski, Vt.).
The compound numbers correspond to the compound numbers in Table 1.

Test [6] has as its system HCC827 cells (EGFR delE746-A750). Put plainly: Cell proliferation (CellTiter Glo), HCC827 cells.
Experimental: Cells were plated in Growth Media supplemented with 5% FBS and 1% P/S at a density of 3,000 cells per well in 96 well tissue culture plates (Corning). […] Growth inhibition (GI50) values were determined by Graph Pad Prism.
Test [7] has as its target EGFR delE746-A750 deletion mutation (HCC827 cells) (Homo sapiens (Human), UniProt P00533, DEL746-750). Put plainly: Phospho-EGFR signaling immunoblot in HCC827 cells. The following applies: for EC50: HCC827 cells, 1 hr treatment, phospho-EGFR (Y1068); for Ratio WT/mutant (HCC827): signaling EC50 WT EGFR / HCC827. It counts as cell-based. The protocol: as §1, §2, §3, §4, §5, §6

Where [8] appears, read: proliferation GI50 WT EGFR / H1975.
Where [9] appears, read: proliferation GI50 WT EGFR / HCC827.

In general, EC50 refers to the concentration needed to bring the measured effect to its halfway point. Low values mean an effect from little substance, high ones a need for much substance. As usually defined, the IC50 is the midpoint of a concentration-inhibition curve.

The structures appear in SMILES notation. Where two headings read alike, the source gives them in different places.

Turning to `C=CC(=O)Nc1cccc(Oc2nc(Nc3ccc(N4CCOCC4)cc3OC)ncc2C(F)(F)F)c1` [Compound I-1, N-(3-(2-(2-methoxy-4-morpholinophenylamino)-5-(trifluoromethyl)pyrimidin-4-yloxy)phenyl)acrylamide], in test [1], the “% Tumor inhibition” value is listed as above 66%. The EC50 in test [2] is 10 to 100 nM; in test [3] it was above 1000 nM. For the same compound, the “Ratio WT/mutant (H1975)” value is reported as above 50 in test [2] and above 15 in test [4] (setting [8]). In addition, the IC50 in test [5] lay within 30 to 100 nM. In addition, the “Ratio WT/mutant (HCC827)” value in test [6] (setting [9]) is above 15.
With `C=CC(=O)Nc1cccc(Nc2nc(Nc3ccc(N4CCN(S(C)(=O)=O)CC4)cc3OC)ncc2C(F)(F)F)c1` [Compound I-17, N-(3-(2-(2-methoxy-4-(4-(methylsulfonyl)piperazin-1-yl)phenylamino)-5-(trifluoromethyl)pyrimidin-4-ylamino)phenyl)acrylamide], the figures for the EC50 in test [2], in test [3] and in test [7] were 10 to 100 nM, above 1000 nM and 100 to 500 nM, respectively. Moreover, the entries for the “Ratio WT/mutant (H1975)” value in test [2] and in test [4] (setting [8]) were above 30 and above 10, respectively. Further, in test [5], the IC50 is 10 to 30 nM. Further, the “Ratio WT/mutant (HCC827)” value in test [7] is recorded as above 5; in test [6] (setting [9]), above 15.
On to `C=CC(=O)Nc1cccc(Nc2nc(Nc3ccc(N4CCOCC4)cc3OC(F)F)ncc2C(F)(F)F)c1` [Compound I-14, N-(3-(2-(2-(difluoromethoxy)-4-morpholinophenylamino)-5-(trifluoromethyl)pyrimidin-4-ylamino)phenyl)acrylamide], for which the EC50 in test [2] fell in the range of 10 to 100 nM; in test [3], 500 to 1000 nM; in test [7], 10 to 100 nM. Also, the “Ratio WT/mutant (H1975)” value in test [2] was above 15; in test [4] (setting [8]) it was above 5. Further, the IC50 in test [5] is 10 to 30 nM. Moreover, the entries for the “Ratio WT/mutant (HCC827)” value in test [7] and in test [6] (setting [9]) were above 15 and above 10, respectively.
For the compound `C=CC(=O)Nc1cccc(Oc2nc(Nc3ccc(N4CCN(C(=O)OC(C)(C)C)CC4)cc3OC)ncc2Cl)c1` [Compound I-46, tert-butyl 4-(4-(4-(3-acrylamidophenoxy)-5-chloropyrimidin-2-ylamino)-3-methoxyphenyl)piperazine-1-carboxylate], the EC50 in test [2] was 100 to 500 nM; in test [3], above 1000 nM; in test [7], below 10 nM. Besides, the “Ratio WT/mutant (H1975)” value in test [2] is above 10; in test [4], above 1. Further, the IC50 in test [5] fell in the range of 100 to 300 nM. Also, the “Ratio WT/mutant (HCC827)” value is listed as above 50 in test [7] and above 10 in test [6].
Regarding `C=CC(=O)Nc1cccc(Nc2nc(Nc3ccc(N4CCN(C(C)=O)CC4)cc3OC(F)(F)F)ncc2C(F)(F)F)c1` [Compound I-33, N-(3-(2-(4-(4-acetylpiperazin-1-yl)-2-(trifluoromethoxy)phenylamino)-5-(trifluoromethyl)pyrimidin-4-ylamino)phenyl)acrylamide], the 50% effective concentration (EC50) in test [2] is 10 to 100 nM; in test [3], above 1000 nM. The “Ratio WT/mutant (H1975)” value is listed as above 50 in test [2] and above 30 in test [4] (setting [8]). The IC50 in test [5] was in the range of 1 to 10 nM. The “Ratio WT/mutant (HCC827)” value in test [6] (setting [9]) was above 15.
For `C=CC(=O)Nc1cccc(Oc2nc(Nc3ccc(N4CCOCC4)cc3OC)ncc2Cl)c1` [Compound I-5, N-(3-(5-chloro-2-(2-methoxy-4-morpholinophenylamino)pyrimidin-4-yloxy)phenyl)acrylamide], in test [1], the “% Tumor inhibition” value is recorded as above 33%. For the same compound, the EC50 in test [2] is 10 to 100 nM; in test [3], above 1000 nM. Further, the figures for the “Ratio WT/mutant (H1975)” value in test [2] and in test [4] (setting [8]) were above 30 and above 5, respectively. Also, in test [5], the IC50 was in the range of 10 to 30 nM. In addition, in test [6] (setting [9]), the “Ratio WT/mutant (HCC827)” value was above 20.
For the compound `C=CC(=O)Nc1cccc(Oc2nc(Nc3ccc(N4CCN(C(=O)CO)CC4)cc3OC)ncc2Cl)c1` [Compound I-3, N-(3-(5-chloro-2-(4-(4-(2-hydroxyacetyl)piperazin-1-yl)-2-methoxyphenylamino)pyrimidin-4-yloxy)phenyl)acrylamide], the half-maximal effective concentration (EC50) in test [2] was 500 to 1000 nM; in test [3], above 1000 nM. The “Ratio WT/mutant (H1975)” value in test [2] and in test [4] (setting [8]) was above 5 in each case. The IC50 in test [5] lay in the range of 1 to 10 nM. In test [6] (setting [9]), the “Ratio WT/mutant (HCC827)” value is on record as above 45.
`C=CC(=O)Nc1cccc(Oc2nc(Nc3ccc(N4CCN(C(=O)NC)CC4)cc3OC)ncc2C(F)(F)F)c1` [Compound I-21, 4-(4-(4-(3-acrylamidophenoxy)-5-(trifluoromethyl)pyrimidin-2-ylamino)-3-methoxyphenyl)-N-methylpiperazine-1-carboxamide]: the EC50 in test [2] was 100 to 500 nM; in test [3], above 1000 nM. Further, the “Ratio WT/mutant (H1975)” value is reported as above 5 in test [2] and above 1 in test [4] (setting [8]). In addition, the IC50 in test [5] lay within 10 to 30 nM. Also, the “Ratio WT/mutant (HCC827)” value in test [6] (setting [9]) is listed as above 20.
As to `C=CC(=O)Nc1cccc(Nc2nc(Nc3ccc(N4CCN(C(=O)CO)CC4)cc3OC)ncc2Cl)c1` [Compound I-12, N-(3-(5-chloro-2-(4-(4-(2-hydroxyacetyl)piperazin-1-yl)-2-methoxyphenylamino)pyrimidin-4-ylamino)phenyl)acrylamide], the EC50 in test [2] and in test [3] was above 1000 nM each time. The “Ratio WT/mutant (H1975)” value in test [2] and in test [4] (setting [8]) was above 1 throughout. Also, the IC50 in test [5] is 10 to 30 nM. The “Ratio WT/mutant (HCC827)” value in test [6] (setting [9]) is given as above 30.
Take `C=CC(=O)Nc1cccc(Nc2nc(Nc3ccc(N4CCN(C(C)=O)[C@H](C(=O)OC)C4)cc3OC)ncc2C(F)(F)F)c1` [Compound I-48, (S)-methyl 1-acetyl-4-(4-(4-(3-acrylamidophenylamino)-5-(trifluoromethyl)pyrimidin-2-ylamino)-3-methoxyphenyl)piperazine-2-carboxylate]: the EC50 in test [2] is 10 to 100 nM; in test [3] it was above 1000 nM. The “Ratio WT/mutant (H1975)” value is above 50 in test [2] and above 10 in test [4] (setting [8]). Besides, in test [5], the IC50 was in the range of 10 to 30 nM. Also, the “Ratio WT/mutant (HCC827)” value in test [6] (setting [9]) is recorded as above 15.
Turning to `C=CC(=O)Nc1cccc(Nc2nc(Nc3ccc(N4CCCN(C(C)=O)CC4)cc3OC)ncc2C(F)(F)F)c1` [Compound I-7, N-(3-(2-(4-(4-acetyl-1,4-diazepan-1-yl)-2-methoxyphenylamino)-5-(trifluoromethyl)pyrimidin-4-ylamino)phenyl)acrylamide], the figures for the EC50 in test [2] and in test [3] were 100 to 500 nM and above 1000 nM, respectively. Besides, the figures for the “Ratio WT/mutant (H1975)” value in test [2] and in test [4] (setting [8]) were above 5 and above 1, respectively. Besides, the IC50 in test [5] fell in the range of 10 to 30 nM. The “Ratio WT/mutant (HCC827)” value in test [6] (setting [9]) was above 10.
Take `C=CC(=O)Nc1cccc(Oc2nc(Nc3ccc(N4CCN(C(=O)CO)CC4)cc3OC)ncc2C(F)(F)F)c1` [Compound I-11, N-(3-(2-(4-(4-(2-hydroxyacetyl)piperazin-1-yl)-2-methoxyphenylamino)-5-(trifluoromethyl)pyrimidin-4-yloxy)phenyl)acrylamide]: the EC50 is 100 to 500 nM in test [2] and above 1000 nM in test [3]. Moreover, the “Ratio WT/mutant (H1975)” value in test [2] was above 15; in test [4] (setting [8]), above 5. For the same compound, in test [5], the IC50 was 10 to 30 nM. For the same compound, the “Ratio WT/mutant (HCC827)” value in test [6] (setting [9]) is on record as above 45.
